Assay results as given in EP4800015A1, “AZABICYCLO DERIVATIVE AND PREPARATION METHOD THEREFOR, AND USE” (Zhejiang Hisun Pharmaceutical Co., Ltd., priority 2023, dated 2025).

Molecular target: T1, recombinant human WRN (Homo sapiens, UniProt Q14191)
T1 construct: purchased BPS 101264
Assay: Inhibition of WRN enzyme activity (ATPase), ADP-Glo Kinase Assay
Assay type: biochemical
Conditions: WRN protein 5 nM, Flap 0.1 nM, ATP 30 µM
Method in brief: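 Recombinant human WRN (5 nM) was preincubated with compound (1000–0.004 nM) for 15 min at room temperature. Flap26 5'-flap DNA (0.1 nM) and 30 µM ATP were then added for 10 min in Tris pH 7.5, MgCl2, NaCl, BSA, Pluronic buffer. ADP was detected by ADP-Glo luminescence, and IC50 was obtained by nonlinear regression versus a 0.1% DMSO control.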

T1 sequence (Q14191 whole entry): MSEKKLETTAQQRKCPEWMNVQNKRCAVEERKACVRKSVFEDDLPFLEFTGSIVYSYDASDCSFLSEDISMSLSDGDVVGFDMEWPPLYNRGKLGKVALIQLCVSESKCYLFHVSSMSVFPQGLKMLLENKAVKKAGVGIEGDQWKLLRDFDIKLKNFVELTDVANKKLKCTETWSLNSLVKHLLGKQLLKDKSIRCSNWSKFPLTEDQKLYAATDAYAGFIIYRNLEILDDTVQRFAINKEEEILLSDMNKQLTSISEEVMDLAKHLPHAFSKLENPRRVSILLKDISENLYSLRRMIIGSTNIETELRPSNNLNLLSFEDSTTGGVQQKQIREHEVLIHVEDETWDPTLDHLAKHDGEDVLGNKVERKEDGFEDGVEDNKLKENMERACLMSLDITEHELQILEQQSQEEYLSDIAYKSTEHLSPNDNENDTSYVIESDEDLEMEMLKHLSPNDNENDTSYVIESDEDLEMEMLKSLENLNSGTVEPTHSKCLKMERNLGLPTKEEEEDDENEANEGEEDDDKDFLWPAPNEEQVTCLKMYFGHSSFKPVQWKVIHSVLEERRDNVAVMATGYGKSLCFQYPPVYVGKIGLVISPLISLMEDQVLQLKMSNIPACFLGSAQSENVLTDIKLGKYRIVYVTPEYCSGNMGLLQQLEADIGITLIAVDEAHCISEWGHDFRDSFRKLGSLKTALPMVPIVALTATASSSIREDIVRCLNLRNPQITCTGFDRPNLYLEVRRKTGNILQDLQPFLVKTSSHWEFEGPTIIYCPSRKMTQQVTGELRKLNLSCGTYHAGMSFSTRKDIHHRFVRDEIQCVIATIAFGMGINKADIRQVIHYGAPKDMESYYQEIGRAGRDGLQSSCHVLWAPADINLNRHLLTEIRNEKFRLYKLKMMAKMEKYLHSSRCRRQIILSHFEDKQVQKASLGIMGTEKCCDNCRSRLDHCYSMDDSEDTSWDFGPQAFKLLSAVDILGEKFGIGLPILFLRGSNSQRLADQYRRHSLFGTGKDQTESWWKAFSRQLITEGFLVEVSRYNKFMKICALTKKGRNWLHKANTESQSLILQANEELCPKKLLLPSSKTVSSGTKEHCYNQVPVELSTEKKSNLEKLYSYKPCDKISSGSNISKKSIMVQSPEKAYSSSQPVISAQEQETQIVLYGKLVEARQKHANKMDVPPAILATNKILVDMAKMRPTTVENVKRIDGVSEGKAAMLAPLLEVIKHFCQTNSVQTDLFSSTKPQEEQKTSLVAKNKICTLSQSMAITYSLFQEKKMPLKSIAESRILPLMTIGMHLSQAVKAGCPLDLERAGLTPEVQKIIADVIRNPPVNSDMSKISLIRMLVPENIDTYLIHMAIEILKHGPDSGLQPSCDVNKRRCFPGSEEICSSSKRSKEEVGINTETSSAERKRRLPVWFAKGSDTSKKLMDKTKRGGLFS

SMILES | IC50
CCc1c(N2CCN(C(=O)c3ncnc(C)c3O)CC2)c(=O)n2nc(-c3ccc4nc[nH]c4c3)nc2n1CC(=O)Nc1ccc(C(F)(F)F)cc1Cl [Example 138, 2-(2-(1H-benzo[d]imidazol-6-yl)-5-ethyl-6-(4-(5-hydroxy-6-methylpyrimidine-4-carbonyl)piperazin-1-yl)-7-oxo-[1,2,4]triazolo[1,5-a]pyrimidin-4(7H)-yl)-N-(2-chloro-4-(trifluoromethyl)phenyl) acetamide] | 1 to 100 nM
CCc1c(N2CCN(C(=O)c3ncnc(C)c3O)CC2)c(=O)n2nc(-c3ccc4cnn(C)c4c3)nc2n1CC(=O)Nc1ccc(C(F)(F)F)cc1Cl [Example 139, N-(2-chloro-4-(trifluoromethyl)phenyl)-2-(5-ethyl-6-(4-(5-hydroxy-6-methylpyrimidine-4-carbonyl)piperazin-1-yl)-2-(1-methyl-1H-indazol-6-yl)-7-oxo-[1,2,4]triazolo[1,5-a]pyrimidin-4(7H)-yl) acetamide] | 1 to 100 nM

Same assay, conditions: WRN protein 5 nM, Flap 0.1 nM, ATP 30 µM; read-out: IC50

SMILES | IC50
CCc1c(N2CCCN(C(=O)c3ncnc(C)c3O)CC2)c(=O)n2nc(-c3ccc4c(c3)CCO4)nc2n1CC(=O)Nc1ccc(C(F)(F)F)cc1Cl [Example 107, N-(2-chloro-4-(trifluoromethyl)phenyl)-2-(2-(2,3-dihydrobenzofuran-5-yl)-5-ethyl-6-(4-(5-hydroxy-6-methylpyrimidine-4-carbonyl)-1,4-diazepan-1-yl)-7-oxo-[1,2,4]triazolo[1,5-a]pyrimidin-4(7 H)-yl)acetamide] | 1 to 100 nM
CCc1c(N2CCC(NC(=O)c3ncnc(C)c3O)CC2)c(=O)n2nc(-c3ccc4c(c3)CCO4)nc2n1CC(=O)Nc1ccc(C(F)(F)F)cc1Cl [Example 108, N-(1-(4-(2-((2-chloro-4-(trifluoromethyl)phenyl)amino)-2-oxoethyl)-2-(2,3-dihydrobenzofuran-5-yl)-5-ethyl-7-oxo-4,7-dihydro-[1,2,4]triazolo[1,5-a]pyrimidin-6-yl)piperidin-4-yl)-5-hydroxy-6-methylpyrimidine-4-carboxamide] | 1 to 100 nM
CCc1c(N2CCN(C(=O)c3ncnc(C)c3O)CC2)c(=O)n2nc(-c3ccc4sc(C)nc4c3)nc2n1CC(=O)Nc1ccc(C(F)(F)F)cc1Cl [Example 110, N-(2-chloro-4-(trifluoromethyl)phenyl)-2-(5-ethyl-6-(4-(5-hydroxy-6-methylpyrimidine-4-carbonyl)piperazin-1-yl)-2-(2-methylbenzo[d]thiazol-5-yl)-7-oxo-[1,2,4]triazolo[1,5-a]pyrimidin-4(7H)-yl)acetamide] | 1 to 100 nM
CCc1c(N2CCN(C(=O)c3ncnc(C)c3O)CC2)c(=O)n2nc(-c3ccc4c(c3)ncn4C)nc2n1CC(=O)Nc1ccc(C(F)(F)F)cc1Cl [Example 111, N-(2-chloro-4-(trifluoromethyl)phenyl)-2-(5-ethyl-6-(4-(5-hydroxy-6-methylpyrimidine-4-carbonyl)piperazin-1-yl)-2-(1-methyl-1H-benzo[d]imidazol-5-yl)-7-oxo-[1,2,4]triazolo[1,5-a]pyrimidin-4(7H)-yl)acetamide] | 1 to 100 nM
CCc1c(N2CCN(C(=O)c3ncnc(C)c3O)CC2)c(=O)n2nc(-c3cnc4[nH]ncc4c3)nc2n1CC(=O)Nc1ccc(C(F)(F)F)cc1Cl [Example 114, N-(2-chloro-4-(trifluoromethyl)phenyl)-2-(5-ethyl-6-(4-(5-hydroxy-6-methylpyrimidine-4-carbonyl)piperazin-1-yl)-7-oxo-2-(1H-pyrazolo[3,4-b]pyridin-5-yl)-[1,2,4]triazolo[1,5-a]pyrimidin-4(7 H)-yl)acetamide] | 1 to 100 nM
CCc1c(N2CCN(C(=O)c3ncnc(C)c3O)CC2)c(=O)n2nc(C=C3CC(C(N)=O)C3)nc2n1CC(=O)Nc1ccc(C(F)(F)F)cc1Cl (stereo not shown) [Example 116, 3-((4-(2-((2-chloro-4-(trifluoromethyl)phenyl)amino)-2-oxoethyl)-5-ethyl-6-(4-(5-hydroxy-6-methylpyrimidine-4-carbonyl)piperazin-1-yl)-7-oxo-4,7-dihydro-[1,2,4]triazolo[1,5-a]pyrimidin-2-yl)methylene)cyclobutane-1-carboxamide] | 1 to 100 nM
CCc1c(N2CCN(C(=O)c3ncnc(C)c3O)CC2)c(=O)n2nc(C=C3CCCC3)nc2n1CC(=O)Nc1ccc(C(F)(F)F)cc1Cl [Example 117, N-(2-chloro-4-(trifluoromethyl)phenyl)-2-(2-(cyclopentylidenemethyl)-5-ethyl-6-(4-(5-hydroxy-6-methylpyrimidine-4-carbonyl)piperazin-1-yl)-7-oxo-[1,2,4]triazolo[1,5-a]pyrimidin-4(7H)-yl)a cetamide] | 1 to 100 nM

More lines, now with the values ahead:

IC50 | SMILES
1 to 100 nM | CCc1c(N2CCN(C(=O)c3ncnc(C)c3O)CC2)c(=O)n2nc(C3=CC4(C3)CC(C(N)=O)C4)nc2n1CC(=O)Nc1ccc(C(F)(F)F)cc1Cl (stereo not shown) [Example 119, 6-(4-(2-((2-chloro-4-(trifluoromethyl)phenyl)amino)-2-oxoethyl)-5-ethyl-6-(4-(5-hydroxy-6-methylpyrimidine-4-carbonyl)piperazin-1-yl)-7-oxo-4,7-dihydro-[1,2,4]triazolo[1,5-a]pyrimidin-2-yl)spiro[3.3]hept-5-ene-2-carboxamide]
1 to 100 nM | CCc1c(N2CCN(C(=O)c3ncnc(C)c3O)CC2)c(=O)n2nc(C3=CC4C/C(=N/OC)CC4C3)nc2n1CC(=O)Nc1ccc(C(F)(F)F)cc1Cl (stereo not shown) [Example 122, (E)-N-(2-chloro-4-(trifluoromethyl)phenyl)-2-(5-ethyl-6-(4-(5-hydroxy-6-methylpyrimidine-4-carbonyl)piperazin-1-yl)-2-(5-(methoxyimino)-1,3a,4,5,6,6a-hexahydropentalen-2-yl)-7-oxo-[1,2,4]triazolo[1,5-a]pyrimidin-4(7H)-yl)acetamide]
1 to 100 nM | CCc1c(N2CCN(C(=O)c3ncnc(C)c3O)CC2)c(=O)n2nc(-c3cccc4occc34)nc2n1CC(=O)Nc1ccc(C(F)(F)F)cc1Cl [Example 124, 2-(2-(benzofuran-4-yl)-5-ethyl-6-(4-(5-hydroxy-6-methylpyrimidine-4-carbonyl)piperazin-1-yl)-7-oxo-[1,2,4]triazolo[1,5-a]pyrimidin-4(7H)-yl)-N-(2-chloro-4-(trifluoromethyl)phenyl)acetamide]
1 to 100 nM | CCc1c(N2CCN(C(=O)c3ncnc(C)c3O)CC2)c(=O)n2nc(-c3ccc4c(c3)C(=O)NC4)nc2n1CC(=O)Nc1ccc(C(F)(F)F)cc1Cl [Example 127, N-(2-chloro-4-(trifluoromethyl)phenyl)-2-(5-ethyl-6-(4-(5-hydroxy-6-methylpyrimidine-4-carbonyl)piperazin-1-yl)-7-oxo-2-(3-oxoisoindolin-5-yl)-[1,2,4]triazolo[1,5-a]pyrimidin-4(7H)-yl)acetamide]
1 to 100 nM | CCc1c(N2CCN(C(=O)c3ncnc(C)c3O)CC2)c(=O)n2nc(-c3ccc4ccn(C)c4c3)nc2n1CC(=O)Nc1ccc(C(F)(F)F)cc1Cl [Example 128, N-(2-chloro-4-(trifluoromethyl)phenyl)-2-(5-ethyl-6-(4-(5-hydroxy-6-methylpyrimidine-4-carbonyl)piperazin-1-yl)-2-(1-methyl-1H-indol-6-yl)-7-oxo-[1,2,4]triazolo[1,5-a]pyrimidin-4(7H)-yl)ac etamide]
1 to 100 nM | CCc1c(N2CCN(C(=O)c3ncnc(C)c3O)CC2)c(=O)n2nc(-c3cc4cccnc4s3)nc2n1CC(=O)Nc1ccc(C(F)(F)F)cc1Cl [Example 131, N-(2-chloro-4-(trifluoromethyl)phenyl)-2-(5-ethyl-6-(4-(5-hydroxy-6-methylpyrimidine-4-carbonyl)piperazin-1-yl)-7-oxo-2-(thieno[2,3-b]pyridin-2-yl)-[1,2,4]triazolo[1,5-a]pyrimidin-4(7H)-yl)a cetamide]
1 to 100 nM | CCc1c(N2CCN(C(=O)c3ncnc(C)c3O)CC2)c(=O)n2nc(-c3ccc4ncnn4c3)nc2n1CC(=O)Nc1ccc(C(F)(F)F)cc1Cl [Example 135, 2-(2-([1,2,4]triazolo[1,5-a]pyridin-6-yl)-5-ethyl-6-(4-(5-hydroxy-6-methylpyrimidine-4-carbonyl)piperazin-1-yl)-7-oxo-[1,2,4]triazolo[1,5-a]pyrimidin-4(7H)-yl)-N-(2-chloro-4-(trifluoromethyl)phenyl)acetamide]
1 to 100 nM | CCc1c(N2CCN(C(=O)c3ncnc(C)c3O)CC2)c(=O)n2nc(-c3ccn4ccnc4c3)nc2n1CC(=O)Nc1ccc(C(F)(F)F)cc1Cl [Example 136, N-(2-chloro-4-(trifluoromethyl)phenyl)-2-(5-ethyl-6-(4-(5-hydroxy-6-methylpyrimidine-4-carbonyl)piperazin-1-yl)-2-(imidazo[1,2-a]pyridin-7-yl)-7-oxo-[1,2,4]triazolo[1,5-a]pyrimidin-4(7H)-yl)acetamide]
1 to 100 nM | CCc1c(N2CCN(C(=O)c3ncnc(C)c3O)CC2)c(=O)n2nc(-c3ccn4ncnc4c3)nc2n1CC(=O)Nc1ccc(C(F)(F)F)cc1Cl [Example 137, 2-(2-([1,2,4]triazolo[1,5-a]pyridin-7-yl)-5-ethyl-6-(4-(5-hydroxy-6-methylpyrimidine-4-carbonyl)piperazin-1-yl)-7-oxo-[1,2,4]triazolo[1,5-a]pyrimidin-4(7H)-yl)-N-(2-chloro-4-(trifluoromethyl)phenyl)acetamide]
1 to 100 nM | CCc1c(N2CCN(C(=O)c3ncnc(C)c3O)CC2)c(=O)n2nc(-c3ccc4c(c3)CC(=O)N4)nc2n1CC(=O)Nc1ccc(C(F)(F)F)cc1Cl [Example 141, N-(2-chloro-4-(trifluoromethyl)phenyl)-2-(5-ethyl-6-(4-(5-hydroxy-6-methylpyrimidine-4-carbonyl)piperazin-1-yl)-7-oxo-2-(2-oxoindolin-5-yl)-[1,2,4]triazolo[1,5-a]pyrimidin-4(7H)-yl)acetamide]
